According to BindingDB's records for patent WO2022115301 (MERCK SHARP & DOHME LLC, 2022):

Biological target: T1, Ceramide glucosyltransferase (Homo sapiens, UniProt Q16739)
T1 sequence (Q16739 whole entry): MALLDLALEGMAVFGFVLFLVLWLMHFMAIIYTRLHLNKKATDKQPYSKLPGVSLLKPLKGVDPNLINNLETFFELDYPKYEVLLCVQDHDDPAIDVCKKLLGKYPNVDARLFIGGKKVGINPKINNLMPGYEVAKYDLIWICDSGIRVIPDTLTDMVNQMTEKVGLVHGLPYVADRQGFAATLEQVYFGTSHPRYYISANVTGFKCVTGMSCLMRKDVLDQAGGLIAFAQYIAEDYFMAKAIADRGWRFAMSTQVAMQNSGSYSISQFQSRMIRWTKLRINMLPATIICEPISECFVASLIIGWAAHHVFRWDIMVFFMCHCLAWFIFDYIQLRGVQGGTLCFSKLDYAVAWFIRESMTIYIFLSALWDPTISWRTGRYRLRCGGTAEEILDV
Assay: UDP-Glo Glucosylceramide Synthase Biochemical Assay
Method: Using Promega s UDP-Glo Glycosyltransferase assay kit (Promega Corporation, Madison, WI, USA (Promega)), GCS activity was indirectly measured by detecting the amount of UDP produced. An aliquot of GCS enzyme (1.5 µg crude golgi preparation, total protein) and titrated test compound were aliquoted to each well and incubated for 30 minutes at room temperature. […] An equivalent volume of substrate mixture was then added to each well. Following a 20 h incubation at room temperature to allow for GCS turnover of substrate, an equal volume of UDP detection reagent (Promega) was added to each well and incubated for an additional 75 minutes at room temperature to simultaneously convert the accumulated UDP product into ATP and generate light in a luciferase reaction. The generated light was detected using a luminometer. […] luminescence values (RLUs) were normalized to mean min and max effects, as determined on each plate. […] See Levenberg, K., A Method for the Solution of Certain Problems in Least Squares , Quart. Appl.

## COc1cc(Cl)cc(-c2cccc3c2C(=O)N([C@H](C2CC2)C(C)(C)O)C3)c1 [WO2022115301, Example 10]
  EC50: 2.8 nM

## Cc1nnc(-c2ccc(-c3cccc4c3C(=O)N([C@H](C3CC3)C(C)(C)O)C4)cc2F)o1 [WO2022115301, Example 9]
  EC50: 24 nM

## CC(C)(O)[C@@H](C1CC1)N1Cc2cccc(-c3cccc4c3OC(F)(F)O4)c2C1=O [WO2022115301, Example 16]
  EC50: 39 nM

## CN1Cc2cc(-c3cc(F)cc4c3C(=O)N([C@H](C3CC3)C(C)(C)O)C4)ccc2C1=O [WO2022115301, Example 25]
  EC50: 9.2 nM

## Cc1n[nH]c2cc(F)c(-c3cccc4c3C(=O)N([C@H](C3CC3)C(C)(C)O)C4)cc12 [WO2022115301, Example 11]
  EC50: 4.9 nM

## Cn1c(=O)n(C)c2cc(-c3cccc4c3C(=O)N([C@H](C3CC3)C(C)(C)O)C4)ccc21 [WO2022115301, Example 6]
  EC50: 4.5 nM

## Cn1ncc2cc(-c3cccc4c3C(=O)N([C@H](C3CC3)C(C)(C)O)C4)ccc21 [WO2022115301, Example 12]
  EC50: 13 nM

## COc1cc(C#N)cc(-c2cccc3c2C(=O)N([C@H](C2CC2)C(C)(C)O)C3)c1 [WO2022115301, Example 8]
  EC50: 7.5 nM

## Cn1cc(-c2ccc(-c3cc(F)cc4c3C(=O)N([C@H](C3CC3)C(C)(C)O)C4)cc2)cn1 [WO2022115301, Example 24]
  EC50: 0.93 nM

## CC(C)(O)[C@@H](C1CC1)N1Cc2cccc(-c3ccccc3OCC(F)(F)F)c2C1=O [WO2022115301, Example 7]
  EC50: 3.6 nM

## CC(C)(O)[C@@H](C1CC1)N1Cc2cccc(-c3ccc(-c4nnco4)cc3)c2C1=O [WO2022115301, Example 5]
  EC50: 52 nM

## CC(C)(O)[C@@H](C1CC1)N1Cc2cccc(-c3ccc(-n4nccn4)cc3)c2C1=O [WO2022115301, Example 17]
  EC50: 580 nM

## Cn1cc(-c2ccc(-c3cccc4c3C(=O)N([C@H](C3CC3)C(C)(C)O)C4)cc2)cn1 [WO2022115301, Example 15]
  EC50: 6.4 nM

## CC(C)(O)[C@@H](C1CC1)N1Cc2cccc(-c3cccc(OCC(F)(F)F)c3)c2C1=O [WO2022115301, Example 14]
  EC50: 48 nM
